Here are results for 13 compounds from ChEMBL document CHEMBL3351541, “Synthesis and analysis of potential α1,3-fucosyltransferase inhibitors” (Bioorg Med Chem, 2014).

Test [1] has as its target T1, 4-galactosyl-N-acetylglucosaminide 3-alpha-L-fucosyltransferase 9 (Homo sapiens, UniProt Q9Y231).
T1 sequence (Q9Y231 whole entry): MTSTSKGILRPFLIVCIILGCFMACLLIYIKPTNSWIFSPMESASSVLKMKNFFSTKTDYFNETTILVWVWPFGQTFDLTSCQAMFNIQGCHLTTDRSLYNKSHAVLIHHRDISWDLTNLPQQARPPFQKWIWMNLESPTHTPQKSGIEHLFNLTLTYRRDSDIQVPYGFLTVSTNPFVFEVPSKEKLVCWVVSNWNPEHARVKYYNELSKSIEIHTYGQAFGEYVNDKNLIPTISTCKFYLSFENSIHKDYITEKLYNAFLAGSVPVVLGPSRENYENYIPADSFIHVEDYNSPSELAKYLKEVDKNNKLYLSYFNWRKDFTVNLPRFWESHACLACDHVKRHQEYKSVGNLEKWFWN
As to the kind of experiment: (§1) Inhibition of human recombinant alpha1,3-fucosyltransferase 9 using GDP-[14C]-fucose preincubated for 30 mins by liquid scintillation counting.

The target in test [2] is T2, 4-galactosyl-N-acetylglucosaminide 3-alpha-L-fucosyltransferase 9 (Homo sapiens) (UniProt Q9Y231).
T2 sequence (whole entry): T1 sequence (Q9Y231 whole entry)
The description is as §1. Set-up: concentration or dose not given beside the values.

The test system of test [3] is Helicobacter pylori. Nature of the test: Inhibition of Helicobacter pylori recombinant alpha1,3-fucosyltransferase using GDP-[14C]-fucose assessed as remaining activity preincubated for 30 mins by liquid scintillation counting.
In test [4] the test system is Helicobacter pylori. As to the kind of experiment: Inhibition of Helicobacter pylori recombinant alpha1,3-fucosyltransferase using GDP-[14C]-fucose preincubated for 30 mins by liquid scintillation counting.

The term pIC50 denotes the negative decadic logarithm of the IC50, by convention in mol/L. For orientation: pKi means the Ki on a negative log10 scale, so that one unit is a factor of ten. The inhibition is the percentage by which the read-out fell short of the control.

pIC50, pKi: −log10 of the molar value. Activity calls are given as the source filed them. The calls are words filed in the database; no cut-off is given here.

Consider `C[C@H]1O[C@@H](n2cc(COP(=O)(O)OP(=O)(O)OC[C@H]3O[C@@H](n4cnc5c(=O)[nH]c(N)nc54)[C@H](O)[C@@H]3O)nn2)[C@H](O)[C@@H](O)[C@H]1O`, for which, in test [1], the pIC50 was 3.87 and the pKi was 3.72.
Take `Nc1nc2c(ncn2[C@@H]2O[C@H](COP(=O)(O)OP(=O)(O)OCc3cn([C@@H]4O[C@H](CO)[C@H](O)[C@H](O)[C@H]4O)nn3)[C@@H](O)[C@H]2O)c(=O)[nH]1`: in test [1], the negative logarithm of the IC50 (pIC50) is 3.61 and the pKi is 3.73.
Consider `Nc1nc2c(ncn2[C@H]2C[C@H](O)[C@@H](CO[P@](=O)(O)OP(=O)(O)O)O2)c(=O)[nH]1`, for which the inhibition in test [2] is less than 80%. Also, in test [1], the pIC50 was 4.31 and the pKi was 4.30. Also, in the test on Helicobacter pylori [3], the Activity is 60%.
With `Nc1nc2c(ncn2[C@@H]2O[C@H](COP(=O)(O)OP(=O)(O)OCc3cn([C@@H]4O[C@H](CO)[C@@H](O[C@@H]5O[C@H](CO)[C@H](O)[C@H](O)[C@H]5O)[C@H](O)[C@H]4O)nn3)[C@@H](O)[C@H]2O)c(=O)[nH]1`, the inhibition in test [2] turned out to be 45%.
For the compound `Nc1nc2c(ncn2[C@@H]2O[C@H](COP(=O)(O)OP(=O)(O)O)[C@@H](O)[C@H]2O)c(=O)[nH]1`, in test [1], the pIC50 was 4.23 and the pKi was 4.11. The inhibition in the test on Helicobacter pylori [4] is less than 75%.
Regarding `O=c1[nH]cnc2c1ncn2[C@@H]1O[C@H](COP(=O)(O)OP(=O)(O)O)[C@@H](O)[C@H]1O`, the inhibition came out at 30% in test [2] and 65% in the test on Helicobacter pylori [4].
`C[C@@H](O)[C@H](O)[C@H](O)[C@@H](O)C=O`: the inhibition result in test [2] is “inactive”. Besides, the inhibition entry in the test with Helicobacter pylori [4] is “Active”.
In the case of `Nc1nc2c(ncn2[C@@H]2O[C@H](COP(=O)(O)OP(=O)(O)OP(=O)(O)O)[C@@H](O)[C@H]2O)c(=O)[nH]1` [GUANOSINE TRIPHOSPHATE], the inhibition (in test [2]; in the test with Helicobacter pylori [4]) was less than 75% in each case. Besides, the negative-log IC50 (pIC50) in test [1] was 4.03. Further, the pKi in test [1] was 4.09.
Regarding `C[C@@H]1O[C@H](n2cc(COP(=O)(O)OP(=O)(O)OC[C@H]3O[C@@H](n4cnc5c(=O)[nH]c(N)nc54)[C@H](O)[C@@H]3O)nn2)[C@@H](O)[C@H](O)[C@@H]1O`, in test [1], the pIC50 was 3.86 and the negative-log Ki (pKi) is 3.86.
On to `Nc1nc2c(ncn2[C@@H]2O[C@H](COP(=O)(O)O)[C@@H](O)[C@H]2O)c(=O)[nH]1`, for which, in test [2], the inhibition result is “inactive”. The inhibition entry with Helicobacter pylori [4] was “Active”.
As for `Nc1ncnc2c1ncn2[C@@H]1O[C@H](COP(=O)(O)OP(=O)(O)O)[C@@H](O)[C@H]1O`, the inhibition result in test [2] was “inactive”. Moreover, the inhibition entry with Helicobacter pylori [4] was “Active”.
On to `CC(=O)Nc1nc2c(ncn2[C@@H]2O[C@H](COP(=O)(O)OP(=O)(O)OCc3cn([C@@H]4O[C@H](COC(C)=O)[C@H](OC(C)=O)[C@H](OC(C)=O)[C@H]4OC(C)=O)nn3)[C@@H](OC(C)=O)[C@H]2OC(C)=O)c(=O)[nH]1`, for which, in test [2], the inhibition result was “inactive”. In the test on Helicobacter pylori [4], the inhibition stood at 45%.
Regarding `NC[C@@H]1O[C@H](OP(=O)(O)OP(=O)(O)OC[C@H]2O[C@@H](n3cnc4c(=O)[nH]c(N)nc43)[C@H](O)[C@@H]2O)[C@@H](O)[C@H](O)[C@@H]1O`, in test [2], the inhibition was 78%. Also, in test [1], the negative logarithm of the IC50 (pIC50) is 3.98 and the pKi is 3.99.
